Results taken from patent US12691086B2, “Methods of treating systemic sclerosis and idiopathic pulmonary fibrosis” (HORIZON THERAPEUTICS IRELAND DAC, priority 2022, dated 2026).
Like-named read-outs stand apart in the source and are kept apart here.

What was measured:
[1] = tested on: cardiac hypertrophy, fibrosis and heart failure; assay: Models of hypertension or diabetes-related cardiac hypertrophy, fibrosis and heart failure; conditions: in vivo
Source text: All these pathological events can be observed in SSc patients at different levels and further support the use of Compound I in these patients.

thrombosis = assay: Model of thrombosis in mouse; type: in vivo; conditions: one model in mouse
[2] = molecular target: T1, organic anion transporter 3 (OAT3) (Homo sapiens, UniProt Q8TCC7); assay: In vitro inhibition of organic anion transporter 3; type: in vitro ADME
T1 sequence (Q8TCC7 1-542): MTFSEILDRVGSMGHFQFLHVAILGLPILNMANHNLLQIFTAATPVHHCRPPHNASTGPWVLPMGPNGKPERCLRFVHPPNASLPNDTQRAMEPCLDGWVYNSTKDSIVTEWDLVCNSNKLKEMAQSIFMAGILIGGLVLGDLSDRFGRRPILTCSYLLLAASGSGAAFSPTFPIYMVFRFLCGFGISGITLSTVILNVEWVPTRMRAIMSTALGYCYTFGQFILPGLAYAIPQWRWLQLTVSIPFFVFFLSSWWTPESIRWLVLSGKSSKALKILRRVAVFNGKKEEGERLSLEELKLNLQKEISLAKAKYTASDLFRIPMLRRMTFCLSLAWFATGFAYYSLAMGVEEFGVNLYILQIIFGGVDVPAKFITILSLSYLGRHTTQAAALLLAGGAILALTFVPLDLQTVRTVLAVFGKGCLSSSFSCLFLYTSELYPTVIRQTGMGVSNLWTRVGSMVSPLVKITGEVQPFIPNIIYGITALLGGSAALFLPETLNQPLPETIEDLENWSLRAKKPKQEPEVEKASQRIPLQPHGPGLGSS

[3] = tested on: leukocytes and total inflammatory cells in broncho-alveolar lavage; assay: Broncho-alveolar lavage of presensitized mice treated with ovalbumin; type: in vivo
[4] = Multiple-dose (BID) PK at steady state with meals in healthy adult subjects; type: in vivo, human; conditions: for t1/2 / half-life: median; for Ctrough / AUC / Cmax: steady state, mean (% CV); for AUC / Cmax / half-life: human, plasma, oral
Description: (§1) The PK of Compound I and food effect were evaluated in an open-label study in healthy volunteers to inform the dose and dosing condition of the tablet formulations used in the clinical studies. Dose proportionality and food effect were evaluated using a 2-way, 2-period crossover design in two cohorts:150 mg and 300 mg single dose under fasting condition in Cohort 1 and 450 mg single dose under fasting and high-fat, high calorie meal condition in Cohort 2. Multiple-dose PK was evaluated using a 2-period, fixed sequence crossover design. Subjects received Compound I twice a day (BID) of 300 mg (Cohort 3) or 450 mg (Cohort 4) administered with low-fat meals in Period 1 and with high-fat meals in Period 2.
(§2) PK sample collections: For cohort 1 and 2, blood samples were collected at predose, 0.5, 1, 2, 3, 4, 6, 8, 12, 24, 36, 48, 72, 96 and 120 h post dose. For cohort 3 and 4, blood samples were collected at predose, 0.5, 1, 2, 4, 5, 12 hrs after the first dose on Day 1. After the last dose on Day 5, PK samples were taken at predose, 0.5, 1, 2, 4, 6, 12, 24, 36, 60, 84, 108 hr in Period 1 and predose, 0.5, 1, 2, 4, 6, 12 hours post last dose in Period 2.
(§3) Plasma concentrations of Compound I were determined using a validated high performance liquid chromatography-tandem mass spectrometry (HPLC MS/MS) method. The analytical range of Compound I were 250-50,000 ng/mL (high range) and […] (low range). Dose-proportionality of pharmacokinetic parameters were examined by analysis of variance (ANOVA) where the AUC0-last, AUC0-inf, and Cmax parameters were dose normalized. 90% confidence intervals (CIs) were derived by exponentiation of the CIs obtained for the difference between the treatment LSMs (Least square means). Dose proportionality was established if the 90% CI for the ratio of the geometric means for the dose-normalized parameters lay within the limits of (0.7, 1.43).

[5] = Food effect on PK at 450 mg single dose in healthy adult subjects; type: in vivo, human; conditions: for AUC(0-inf) / AUC(0-t) / Cmax: human, plasma, oral; for AUC(0-inf): read-out: AUC0-inf, Geometric LSM; for AUC(0-t): read-out: AUC0-last, Geometric LSM; for Cmax: read-out: Cmax, Geometric LSM
Description: as §1, §2, §3
Food effect was evaluated using ANOVA on the ln-transformed PK parameters. The ANOVA model included sequence, treatment, and period as fixed effects and subject nested within sequence as a random effect. Geometric least square means, geometric mean ratio (High fat vs. fasted) and 90% confidence interval of PK parameters (AUC and Cmax) were calculated from the ANOVA model.

[6] = 300 mg BID, High-fat reduced calorie meal
[7] = 450 mg BID, High-fat high calorie meal
[8] = 300 mg, 300 mg BID, High-fat reduced calorie meal
[9] = 300 mg, 300 mg BID, Low-fat meal
[10] = 450 mg, 450 mg BID, High-fat high calorie meal
[11] = 450 mg, 450 mg BID, Low-fat meal
[12] = Fed (high-fat, high-calorie meal)

Question: For `COc1ccc(C(=O)NC2(C(=O)O)Cc3ccccc3C2)cc1OCCc1cccc(C)c1` [Compound I, 2-(4-methoxy-3-(3-methylphenethoxy)benzamido)-2,3-dihydro-1H-indene-2-carboxylic acid], which arterial stiffness [1] is on record?
Answer: Its arterial stiffness is “positive effect”.

Question: And the blood pressure [1]?
Answer: Its blood pressure is “mostly unchanged”.

Question: What about the “cardiac function and structure” value [1] of the same compound?
Answer: Its value is “beneficial effect”.

Question: What about the “cardiac systolic and diastolic function” value [1] of the same compound?
Answer: The value was “improves”.

Question: And the antithrombotic activity (thrombosis)?
Answer: Its antithrombotic activity is “demonstrated antithrombotic activity”.

Question: And the “inhibition of OAT3” value [2]?
Answer: The value was “inhibitor”.

Question: What about the “inflammation in model of lung injury” value ([3]; predominant Th2-type response) of the same compound?
Answer: The value was “reduces inflammation”.

Question: What about the “accumulation of leukocytes and total inflammatory cells in broncho-alveolar lavage” value ([3]; presensitized mice treated with ovalbumin) of the same compound?
Answer: The value was “significant inhibitory effect”.

Question: What about the t1/2 [4, 6] of the same compound?
Answer: Its t1/2 is 24.6 h.

Question: What about the Ctrough [4, 6] of the same compound?
Answer: The Ctrough was 8627 (17%) ng/mL.

Question: What about the Ctrough ([4]; 300 mg BID, Low-fat meal) of the same compound?
Answer: Its Ctrough is 6570 (13%) ng/mL.

Question: And the t1/2 [4, 7]?
Answer: Its t1/2 is 27.7 h.

Question: And the Ctrough [4, 7]?
Answer: Its Ctrough is 11000 (23%) ng/mL.

Question: And the Ctrough ([4]; 450 mg BID, Low-fat meal)?
Answer: The Ctrough was 11000 (35%) ng/mL.

Question: And the AUC [4, 8]?
Answer: The AUC was 166 µg·h/mL.

Question: And the Cmax [4, 8]?
Answer: Its Cmax is 21700 ng/mL.

Question: And the AUC [4, 9]?
Answer: Its AUC is 129 µg·h/mL.

Question: And the Cmax [4, 9]?
Answer: The Cmax was 15900 ng/mL.

Question: And the AUC [4, 10]?
Answer: The AUC was 204 µg·h/mL.

Question: And the Cmax [4, 10]?
Answer: The Cmax was 25800 ng/mL.

Question: And the AUC [4, 11]?
Answer: Its AUC is 163 µg·h/mL.

Question: What about the Cmax [4, 11] of the same compound?
Answer: The Cmax was 18400 ng/mL.

Question: And the half-life ([4]; 300 mg BID, Low-fat meal)?
Answer: The half-life was 24.6 h.

Question: What about the half-life ([4]; 450 mg BID, Low-fat meal) of the same compound?
Answer: The half-life was 27.7 h.

Question: And the “Cmax, GMR fed vs fasted” value [5]?
Answer: Its value is 190.85%.

Question: And the AUC(0-inf) ([5]; Fasted)?
Answer: Its AUC(0-inf) is 117 µg·h/mL.

Question: And the AUC(0-t) ([5]; Fasted)?
Answer: Its AUC(0-t) is 116 µg·h/mL.

Question: What about the Cmax ([5]; Fasted) of the same compound?
Answer: The Cmax was 14000 ng/mL.

Question: What about the AUC(0-inf) [5, 12] of the same compound?
Answer: The AUC(0-inf) was 248 µg·h/mL.

Question: And the AUC(0-t) [5, 12]?
Answer: Its AUC(0-t) is 246 µg·h/mL.

Question: What about the Cmax [5, 12] of the same compound?
Answer: The Cmax was 26700 ng/mL.
